# Active and inactive are the calls of the source. The rule behind the calls is not given here.
# What was measured:
# Influenza A virus [1] = experiment: Antiviral activity against Influenza A virus (A/Texas/36/1991(H1N1)) infected in BALB/c mouse assessed as animal survival at 500 mg/kg, po administered via gavage as two doses at 8 and 32 hrs post infection (reference value: 0%); assay type: functional
# dengue virus type 2 [2] = experiment: (§1) Antiviral activity against Dengue virus 2 S221 infected in DENV antibody dependent enhancement AG129 mouse model assessed as reduction in TNF-alpha level at 750 mg/kg, po administered via gavage as single dose at 36 hrs post infection measured at 72 hrs post-infection by electrochemiluminescence based method; assay type: functional, organism-based
# Mus musculus = experiment: In vivo inhibition of ERGlu2 in BALB/c mouse assessed as increase in mono-glucosylated FOS level in lung at 100 mg/kg, po administered via gavage starting at 8 hrs post-infection and continuing tid for 5 days and measured at 8 hrs post-final dose by NP-HPLC analysis; assay type: functional, organism-based
# Influenza A virus [3] = experiment: Antiviral activity against Influenza A virus (A/Texas/36/1991(H1N1)) infected in BALB/c mouse assessed as increase in animal survival rate at >250 mg/kg, po administered via gavage as single dose at 8 hrs post-infection; assay type: functional, organism-based
# dengue virus type 2 [4] = experiment: as §1, with “IL-10” for “TNF-alpha”; assay type: functional, organism-based
compound,measurement,setting,value
COCCCCCCCCCN1C[C@H](O)[C@@H](O)[C@H](O)[C@H]1CO.Cl,survival at 500 mg/kg,Influenza A virus [1],100%
same,Activity,dengue virus type 2 [2],Active
same,inhibition,Mus musculus,Active
same,Activity,Influenza A virus [3],Active
same,Activity,dengue virus type 2 [4],Active
